Key:
HCT116 cells = assay: Crystal violet (CV) viability assay, HCT116; type: cell-based, human; conditions: 72 h, mean±SD; read-out: IC50 [μM] (n = 3) HCT116 CV
Protocol: (§1) In a preliminary test, the stability of all compounds dissolved in the cell medium (c = 100 μM, T = [drawing 47] ) for 72 h was validated by HPLC (see Supporting Information). Cell lines were incubated with the respective compounds in a concentration range of 1.56–100 μM for 72 h, and cell viability was measured using 3-(4,5-dimethylthiazol-2-yl)-2,5-diphenyltetrazolium bromide (MTT) and crystal violet (CV) assays. […] As MTT tests gave inconsistent results, possibly due to interference of the compound with mitochondrial respiration, for the further evaluation only the CV results are considered[97],[98].
(§2) The biological study was performed on a murine colon adenocarcinoma cell line (MC38), two human colorectal carcinoma cell lines (HCT116 and HT29), and a human fetal lung fibroblast cell line (MRC-5). All cell lines are commercially available and were obtained from the American Type Culture Collection (ATCC). The human cell lines were kept in HEPES-buffered RPMI-1640 medium supplemented with 10 [drawing 141] heat-inactivated FCS, 2 mM L-glutamine, 0.01 [drawing 142] sodium pyruvate, penicillin (100 units mL^−1), and, streptomycin ( [drawing 143] mL^-1). The MC38 cell line was maintained in DMEM medium additionally supplemented with 1 [drawing 144] non-essential amino acids. Cells were grown at [drawing 145] in a humidified atmosphere with 5 [drawing 146] [drawing 147] . Peritoneal exudate cells (PECs) were isolated from healthy C57BL/6 mice (males, n = 3, 3 months old, weight 22–25 g) by performing an ice-cold PBS peritoneal lavage. Mice were sacrificed by cervical dislocation. Cells were cultivated for 4 h when nonadherent population was removed by washing in PBS, and additionally cultivated overnight in HEPES-buffered RPMI-1640 medium supplemented with 5 [drawing 148] heat-inactivated FCS before treatment with experimental drugs. Animal handling and protocol for isolation of PECs were performed according to European Union rules, and the ARRIVE guidelines 2.0.
(§3) For the viability tests, MC38, HCT116, and HT29 cells were seeded in 96-well plates at a density of 2 [drawing 149] 103, 5 [drawing 150] 103, and 6 [drawing 151] 10^3 cells/well, respectively. To determine whether the drug affected the viability of healthy, non-malignant cells, MRC-5 and PECs were seeded in 96-well plates at a density of 8 [drawing 152] 103 and 2 [drawing 153] 10^5 cells/well, respectively. For the flow cytometric analyses, MC38 cells were seeded in 6-well plates at 5 [drawing 154] 10^4 cells/well. For morphological assessment of nuclei and the detection of autophagy, MC38 cells were seeded in 2-well chamber slides at 1.5 [drawing 155] 10^4 cells/well.
(§4) After 72 h, cell viability was determined using MTT and CV tests. First, the supernatant from the wells was discarded and the cells were incubated with an MTT solution (0.5 mg mL^−1). After half an hour, the purple formazan crystals formed were dissolved in DMSO. For CV staining of the cells, the cells were fixed with 4 [drawing 157] PFA for 10 min and then stained with a 0.02 [drawing 158] CV solution for 15 min, all at room temperature (RT). The cells were then washed with tap water, air-dried and the dye was dissolved in 33 [drawing 159] acetic acid. For both viability tests, the absorbance of the developed colors was measured using an automated microplate reader at 570 nm with a reference wavelength of 670 nm. The results were expressed as a percentage of the control values of the untreated cells, which were arbitrarily set at 100 [drawing 160] . IC50 values, defined as 50 [drawing 161] inhibitory concentration, were calculated using a four-parameter logistic function and presented as mean±SD. All biological experiments were performed in triplicates. To evaluate the nature of the detected autophagy, a combined treatment with compound 3 and the autophagy inhibitors chloroquine (Chlq) and 3-methyladenine (3-MA) was carried out. […] After 72 h, cell viability was determined by CV assay.

HT29 cells = assay: Crystal violet (CV) viability assay, HT29; type: cell-based, human; conditions: 72 h, mean±SD; read-out: IC50 [μM] (n = 3) HT29 CV
Protocol: as §1, §2, §3, §4

MC38 cells [1] = assay: AnnV-FITC/PI double staining, flow cytometry; type: cell-based, murine; conditions: IC50 concentration, 72 h
Protocol: (§5) For all flow cytometric analyses, MC38 cells were seeded overnight and then treated with the IC50 concentration of compound 3 for 72 h. The cells were harvested, washed, and stained according to the manufacturer’s instructions for each method. To determine whether the compound induces apoptosis, cells were double stained with AnnV-FITC and PI (15 μg mL^–1) for 15 min at RT in the dark. To detect caspase activity, cells were stained with the FITC-conjugated caspase inhibitor ApoStat for 30 min at [drawing 162] . To detect cell proliferation, MC38 cells were stained with CFSE (1 μM) for 10 min at [drawing 163] prior to seeding and then treated as previously described. To detect intracellular production of Reactive oxygen/nitrogen Species (ROS/RNS), MC38 cells were prestained with DHR 123 (1 [drawing 164] M) for 20 min at [drawing 165] , then seeded and exposed to an IC50 concentration of compound 3. After 72 h incubation, all samples were washed, resuspended in PBS and fluorescence intensity was analyzed using a CytoFLEX [drawing 166] flow cytometer (Beckman Coulter, Pasadena, CA, USA), while the data obtained was evaluated using the [drawing 167] software program.

MC38 cells [2] = assay: ApoStat caspase activity, flow cytometry; type: cell-based, murine; conditions: IC50 concentration, 72 h
Protocol: as §5

MC38 cells [3] = assay: PI staining of fixed cells, fluorescence microscopy; type: cell-based, murine; conditions: IC50 concentration, 72 h
Protocol: (§6) For morphological assessment of cell nuclei, MC38 cells were seeded overnight in 2-well chamber slides and then treated with the IC50 concentration of compound 3 for 72 h. At the end of the incubation period, cells were fixed with 4 [drawing 168] PFA for 15 min at RT. Staining of cells was performed with PI solution (0.1 [drawing 169] Triton X-100, 0.5 M EDTA pH 8, 50 μg mL^− 1 RNase, and 50 [drawing 170] mL^− 1 PI - final concentrations in PBS) for 1–2 min at RT. After washing in PBS, the cells were mounted in a fluorescence microscopy medium (Fluoromount- [drawing 171] , eBioscience, San Diego, CA, USA). The slides were analyzed with a ZeissAxio Observer Z1 inverted fluorescence microscope (Carl Zeiss AG, Oberkochen, Germany) at 400 [drawing 172] magnification. For the detection of autophagosomes, AO staining of cells seeded in 2-well chamber slides was applied. […] The dye was then removed, the cells were rinsed with PBS and immediately evaluated via fluorescence microscopy at 400 [drawing 175] magnification using the Leica DM4 B microscope equipped with a DFC7000 T camera (Leica Microsystems CMS GmbH, Wetzlar, Germany).

MC38 cells [4] = assay: Acridine orange staining for autophagosomes; type: cell-based, murine; conditions: IC50 concentration, 72 h
Protocol: as §6

MC38 cells [5] = assay: CFSE cell proliferation, flow cytometry; type: cell-based, murine; conditions: IC50 concentration, 72 h
Protocol: as §5

[6] = Stability in solution, air and moisture; conditions: storage

Substance: 1-[2-(7,8-dicarba-nido-undecaborate)]- [drawing 126] H-indolium-2-amine [compound 3]
- IC50 (HCT116 cells): 11.5 ± 1 µM
- IC50 (HT29 cells): 17.6 ± 0.3 µM
- apoptosis (AnnV-FITC/PI), in words (MC38 cells [1]): moderate apoptotic cell accumulation
- total caspase activity vs controls (MC38 cells [2]): no significant change in total caspase activity
- nuclear morphology (PI staining) (MC38 cells [3]): moderate involvement of apoptotic cells
- autophagosomes in the cytoplasm (acridine orange) (MC38 cells [4]): intensified presence of autophagosomes
- CFSE mean fluorescence intensity (undivided cell fraction) (MC38 cells [5]): significantly higher in comparison to controls
- stability in air and moisture [6]: stable in air and moisture
